Assay results published in patent US9872861B2, “Methods of treatment using selective Bcl-2 inhibitors” (AbbVie Inc., priority 2010, dated 2018).
Like-named read-outs stand apart in the source and are kept apart here. Marks after values point to notes of the source that are not given here.

Columns and labels:
H146 cells = test: Cellular efficacy in Bcl-XL dependent tumor cell line H146; assay type: cell-based; conditions: Homo sapiens, NCI-H146; 10% HS
[1] = system: peripheral blood immune cells; test: Peripheral blood lymphocytes in C57BL/6 mice, Cell Dyn hematology analyzer; assay type: in vivo; conditions: for inhibition in vivo at 100 mg/kg: Mus musculus, Lymphocyte
Description: The effect of the Bcl-2 selective/Bcl-XL sparing compounds on peripheral blood immune cells was also evaluated in C57BL/6 mice. Mice were treated four days with individual compounds (100 mg/kg, orally every day) and cell numbers were measured with a Cell Dyn hematology analyzer.

[2] = system: IFNα-induced (NZB×NZW)F1 lupus model; test: IFNα-induced (NZB×NZW)F1 lupus model: proteinuria, survival, lymphopenia; assay type: in vivo, (NZB×NZW)F1 mice
Description: Treatment was initiated in a late-prophylactic mode (7 days after IFNα adenovirus). […] All treatment groups were administered treatment 7 days after adenovirus injection. Following adenovirus injection, mice were monitored weekly for proteinuria (PU) using Albustix test strips (VWR). Severe PU was defined by consecutive weekly measurements of PU≧300 mg/dl. When mice became moribund, they were sacrificed according to Institutional Animal Care and Use Committee protocols.

[3] = system: spontaneous (NZB×NZW)F1 murine model of lupus; test: Spontaneous (NZB×NZW)F1 murine model of lupus: proteinuria, survival, lymphopenia; assay type: in vivo, (NZB×NZW)F1 mice
From the text: (See Liu, K. and C. Mohan, What do mouse models teach us about human SLE? Clin Immunol, 2006. 119(2): p. 123-30) This model has been well-characterized with respect to the patho-physiological changes analogous to those of human SLE. […] Renal histopathological changes include severe glomerulonephritis, mesangial and peripheral proliferative changes, capillary membrane thickening, tubular atrophy, and infiltration of lymphocytes and monocytes/macrophages as in the majority of human SLE patients. These changes result in disruption of kidney function as evidenced by severe proteinuria (PU) greater than 300 mg/dL as measured by albumin sticks, followed by mortality as measured by survival. […] (See Gelfand, M. C. and A. D. Steinberg, Therapeutic studies in NZB-W mice. II. Relative efficacy of azathioprine, cyclophosphamide and methylprednisolone. Arthritis Rheum, 1972. 15(3): p. 247-52; and Ramos, M. A., et al., Modulation of autoantibody production by mycophenolate mofetil: effects on the development of SLE in (NZB×NZW)F1 mice. Nephrol Dial Transplant, 2003. 18(5): p. 878-83)
(NZB×NZW)F1 females were purchased from The Jackson Laboratory (Bar Harbor, Me., USA) and maintained in a conventional animal housing facility throughout the experiment. […] Proteinuria (PU) and survival were monitored weekly, followed by biweekly measurement of lymphocyte and platelet counts, and anti-ds DNA production. PK parameters were also measured throughout the study. Impact on IgG deposition and renal pathology were assessed at the conclusion of the study. Severe PU was defined by two consecutive weekly measurements of PU 300 mg/dl using Albustix test strips (VWR). When mice became moribund, they were sacrificed according to Institutional Animal Care and Use Committee protocols. PU and survival data were presented as Kaplan-Meyer survival curves using Graphpad Prism software and group differences were considered significant at the level of p<0.05. Histologic scores were analyzed using ANOVA analysis. Anti-ds DNA were analyzed using one-way ANOVA analysis and Tukey post-test.

CC1(C)CCC(CN2CCN(c3ccc(C(=O)NS(=O)(=O)c4ccc(NCC5CCOCC5)c([N+](=O)[O-])c4)c(Oc4cnc5[nH]ccc5c4)c3)CC2)=C(c2ccc(Cl)cc2)C1 [Compound 1, 4-(4-{[2-(4-chlorophenyl)-4,4-dimethylcyclohex-1-en-1-yl]methyl}piperazin-1-yl)-N-({3-nitro-4-[(tetrahydro-2H-pyran-4-ylmethyl)amino]phenyl}sulfonyl)-2-(1H-pyrrolo[2,3-b]pyridin-5-yloxy)benzamide]
EC50 (H146 cells): 3.6 µM | Day 1 Lymphocytes ([1]; 1 oral dose of 100 mg/kg): 1.38 ×10^6 | Day 4 lymphocytes ([1]; 4 oral doses of 100 mg/kg): 1.32 ×10^6 | inhibition in vivo at 100 mg/kg ([1]; 24 h, 1 oral dose of 100 mg/kg, read-out: Day 1 % Reduction vs. Vehicle): 83% | inhibition in vivo at 100 mg/kg ([1]; 96 h, 4 oral doses of 100 mg/kg, read-out: Day 4 % Reduction vs. Vehicle): 83% | lymphopenia in the blood throughout treatment ([2]; 30 mg/kg): > 70% | % Mice with PU < 300 mg/dL ([2]; 30 mg/kg/day orally): 77* % | % Survival ([2]; 30 mg/kg/day orally): 82* % | onset of severe PU and survival ([2]; 30 and 100 mg/kg): significantly delayed the onset of severe PU and prolonged survival | % Mice with PU < 300 mg/dL ([3]; Week 47, 1 mg/kg daily oral): 51% | % Survival ([3]; Week 47, 1 mg/kg daily oral): 60% | % Mice with PU < 300 mg/dL ([3]; Week 47, 3 mg/kg daily oral): 50% | % Survival ([3]; Week 47, 3 mg/kg daily oral): 70% | % Mice with PU < 300 mg/dL ([3]; Week 47, 10 mg/kg daily oral): 66* % | % Survival ([3]; Week 47, 10 mg/kg daily oral): 83* % | % Mice with PU < 300 mg/dL ([3]; Week 47, 30 mg/kg daily oral): 94* % | % Survival ([3]; Week 47, 30 mg/kg daily oral): 100* % | % Mice with PU < 300 mg/dL ([3]; Week 47, 100 mg/kg daily oral): 100* % | % Survival ([3]; Week 47, 100 mg/kg daily oral): 100* % | lymphopenia in peripheral blood ([3]; spontaneous model, 30 mg/kg): 70% | lymphopenia in peripheral blood ([3]; spontaneous model, 100 mg/kg): 70% | survival ([3]; spontaneous model, 3, 10, 30 and 100 mg/kg): significantly prolonged survival | onset of severe PU ([3]; spontaneous model, reaching significance at 10, 30 and 100 mg/kg): delayed onset of severe PU in a dose-dependent fashion
